Measurements reported in patent US12678438B2, “Treatment of cancer with CDK inhibitors” (THE TRUSTEES OF THE UNIVERSITY OF PENNSYLVANIA, priority 2019, dated 2026).

Experiments:
[1] = system: enzalutamide resistant PCa cell lines; experiment: Enzalutamide resistant PCa cells: immunoblot and colony formation; format: cell-based, human
Protocol: Prostate parental cell lines used in this study were obtained from ATCC, LNCaP-AR cells were a gift from Dr. Charles Sawyers (Memorial Sloan-Kettering Cancer Center, New York, NY), and LNCaP AR-KO cells were a gift from Dr. Dean Tang (Roswell Park Cancer Institute, Buffalo, NY). LNCaP, LNCaP-AR, 22RV1, LAPC4, DU145, PC3, and LNCaP AR-KO prostate cancer cell lines were grown in RPMI 1640 (Gibco, 11875093), and VCaP prostate cancer cell line was grown in DMEM with Glutamax (Gibco, 21013024). The medium was supplemented with 10% Fetal Bovine Serum (FBS) (HYC, SH30910.03) and 1% Penicillin Streptomycin Solution (Invitrogen, 15140122), hereto referred to as “complete media.” The immortalized benign prostate cell line RWPE-1 was grown in keratinocyte media with supplements (Thermo Fisher Scientific, 17005042). LNCaP-AR and VCaP enzalutamide-resistant cell lines were derived from enzalutamide-resistant PCa tumor xenograft as described previously. LNCaP and LAPC4 enzalutamide-resistant cell lines were generated by culturing the cells in presence of 20 μM enzalutamide for 3-4 months in vitro. Polyclonal pools of enzalutamide-resistant cells were cultured and maintained in media containing enzalutamide throughout. All experiments for enzalutamide resistant pools were done in presence of enzalutamide throughout the remainder of all experiments with these cells. The cell lines were tested negative for mycoplasma contamination and maintained in a humidified incubator at 37° C. and 5% CO2.
(§1) For the long-term colony formation assay, 10,000-50,000 cells/well in six-well plates (n=3) were seeded and treated with the required drugs/compounds or vehicle for 14 days. Media was refreshed every 4-5 days. Colonies were fixed and stained using 0.5% (w/v) crystal violet (Sigma, C0775) in 20% (v/v) methanol for 30 min, washed with distilled deionized water, and air-dried. To quantify staining, we washed the stained wells with 500 μL 10% acetic acid and using colorimetric assays determined the absorbance at 590 nm using a spectrophotometer (Synergy HT, BioTek Instruments, Vermont-USA).
Cell lysates were prepared with RIPA buffer (Boston Bioproducts, BP-115DG)-10 mM Tris-HCl pH 7.5, 1 mM EDTA, 400 mM NaCl, 0.5% NP-40 and 1 mM DTT, supplemented with protease inhibitor cocktail (Pierce, A32965) and phosphatase inhibitor (Thermo, 1861280). For immunoblotting 200 μg total protein extract was boiled in sample buffer and 15-25 μg aliquots were separated by SDS-PAGE and transferred onto Polyvinylidene Difluoride membrane (GE Healthcare, IPVH00010). The membrane was incubated for one hour in blocking buffer [Tris-buffered saline, 0.1% Tween (TBS-T), 5% nonfat dry milk followed by overnight incubation on a rocker at 4° C. with the primary antibody. […]

VCaP CRPC xenograft = experiment: VCaP CRPC mouse xenograft; format: in vivo
Protocol: In vivo efficacy studies were performed in accordance with protocols approved by the Institutional Animal Care and Use Committee (IACUC) at the University of Pennsylvania and in compliance with all regulatory standards. Four to five-week-old male NOD SCID gamma mice (Jackson Lab, 005557) were procured from Jackson Laboratory. In the VCaP experiment, 2×10^6 VCaP prostate cancer cells suspended in 80 μL of RPMI-1640 with 50% Matrigel (BD Biosciences) were implanted subcutaneously into the dorsal flank of the mice. The animals were castrated when the tumor volumes reached approximately 150 mm^3. […] Tumor growth was recorded using digital calipers and tumor volumes were estimated using the formula (π/6) (L×W^2), where L=length and W=width of tumor. Body weight during the study was also monitored. At the end of the treatment regimen the mice were sacrificed and were extracted for further analysis.
Xenograft tumor pieces were fixed in 4% of formaldehyde for 48 h and paraffin embedded. Paraffin embedded sections from the tumors of treated and untreated mice were deparaffinized, rehydrated and subjected to epitope retrieval stained with a phospho-MED1 antibody (1:4000/1:2000), anti-PSA antibody (1:1000), anti-Ki67 (1:500), or anti-cleaved caspase3 antibody (1:1000) followed by peroxidase-based detection and counterstaining with hematoxylin using the Leica Bond Rxm system. Photographs were taken on a Leica DMI6000B inverted light and fluorescent microscope with a 20× objective. images were assessed and quantified in ImageJ.
Whole blood of the xenograft bearing mice was collected with heparinized blood collecting tubes (Fisherbrand, 02-668-10), and cells were removed from plasma by centrifugation for 10 minutes at 2,000 g at 4° C. The plasma was used to detect PSA levels using the Human PSA ELBA Kit (Abeam, ab113327) following the manufacturer's protocol. In brief, we diluted the mice plasma ten time with Assay Diluent A, and LNCaP culturing media was used as a positive control. Serially diluted standards were used for quantification. 100 μL of each sample was loaded on the human PSA specific antibody coated 96-well plate in duplicates and the plate was incubated overnight at 4° C. to allow the PSA presented in samples to bind to the wells. The wells were then washed, and biotinylated anti-Human PSA antibody was added. After washing away unbound biotinylated antibody, HRP-conjugated streptavidin was added into the wells. The wells were again washed and developed with a TMB substrate solution followed by the addition of the stop solution and colorimetric measurement of the intensity at 450 nm. The concentrations of the PSA in the samples were calculated based on the standard curve.

AR-positive cells = experiment: Long-term colony formation assay; format: cell-based, human; settings: 50 nM THZ1, 12-14 days
Protocol: as §1

[2] = target: CAK complex-CDK7/CyclinH/MAT1 (Homo sapiens, UniProt P50613); experiment: In vitro kinase assay, CAK complex with GST-MED1 protein, immunoblot; format: biochemical; settings: 60 min at 30° C.
Protocol: The kinase assay was performed by preparing the master mixture of 3 ul (5×) kinase assay buffer, 0.5 ul of 500 uM ATP (BPS Bioscience, 79603), 1.25 ul (1 ug/ul) Human Recombinant GST-MED1 protein (Lifespan Biosciences, LS-G59680-25), and 7.75 ul of kinase assay grade water per reaction for the desired number of reactions. […] Additionally, kinase assay reaction mixtures containing no ATP and CDK7 were used as negative controls. Next, CAK complex-CDK7/CyclinH/MAT1 enzyme (BPS Bioscience) was thawed and diluted to (10 ng/111) in 1× kinase assay buffer. The reactions were initiated by adding 10 ul of diluted CAK complex to the designated wells and incubated at 30° C. for 60 min. After the incubation the reaction was stopped, and the mixture were analyzed through western blotting.

[3] = system: AR-negative PC3 and DU145 cells; experiment: Annexin V-FITC apoptosis analysis; format: cell-based, human
Protocol: (§2) Apoptosis induction was quantified using the Annexin-V and FITC Apoptosis Kit, as per manufacturer's instructions. Briefly LNCaP, VCaP, DU145 and PC3 cells were plated at a density of 5×10^5 cells per well in a 6-well culture plate. After subsequent treatments, the cells were harvested following incubation with a staining solution containing 10 μL propidium iodide and 5 μL Annexin for 10 min and analyzed by flow cytometry (BD FACS Aria II, BD Biosciences, San Jose).

[4] = system: AR-positive LNCaP and VCaP cells; experiment: Annexin V-FITC apoptosis analysis; format: cell-based, human
Protocol: as §2

[5] = residual tumors, 10 mg/kg b.i.d., four weeks

Sequence of CAK complex-CDK7/CyclinH/MAT1 (P50613 whole entry): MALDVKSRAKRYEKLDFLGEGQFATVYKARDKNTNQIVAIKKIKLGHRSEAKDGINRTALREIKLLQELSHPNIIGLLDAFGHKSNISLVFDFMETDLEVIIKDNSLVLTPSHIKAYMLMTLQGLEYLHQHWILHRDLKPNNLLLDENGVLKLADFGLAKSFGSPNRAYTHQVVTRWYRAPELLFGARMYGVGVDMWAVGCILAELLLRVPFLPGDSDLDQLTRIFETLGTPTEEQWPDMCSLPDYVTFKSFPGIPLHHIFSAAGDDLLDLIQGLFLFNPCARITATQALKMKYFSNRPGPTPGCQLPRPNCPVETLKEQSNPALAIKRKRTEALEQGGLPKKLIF
Sequence of CAK complex-CDK7/CyclinH/MAT1 (P51946 whole entry partner): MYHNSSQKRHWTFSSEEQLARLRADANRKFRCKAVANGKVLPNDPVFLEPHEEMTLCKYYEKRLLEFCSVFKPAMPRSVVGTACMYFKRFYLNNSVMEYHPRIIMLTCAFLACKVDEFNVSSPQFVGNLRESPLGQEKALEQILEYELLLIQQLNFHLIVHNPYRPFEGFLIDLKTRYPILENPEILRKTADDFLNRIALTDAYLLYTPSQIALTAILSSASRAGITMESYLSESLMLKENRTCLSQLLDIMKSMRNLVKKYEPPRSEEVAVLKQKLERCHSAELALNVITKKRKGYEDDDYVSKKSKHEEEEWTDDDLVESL
Sequence of CAK complex-CDK7/CyclinH/MAT1 (P51948 whole entry partner): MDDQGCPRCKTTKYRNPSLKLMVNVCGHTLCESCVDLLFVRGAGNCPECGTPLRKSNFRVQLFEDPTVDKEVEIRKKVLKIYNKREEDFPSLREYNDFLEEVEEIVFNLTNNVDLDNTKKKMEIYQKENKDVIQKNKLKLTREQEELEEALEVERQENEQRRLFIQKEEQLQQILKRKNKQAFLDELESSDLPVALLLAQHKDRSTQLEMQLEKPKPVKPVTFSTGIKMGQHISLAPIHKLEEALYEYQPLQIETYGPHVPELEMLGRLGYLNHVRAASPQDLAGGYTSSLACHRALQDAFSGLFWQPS

SMILES: CN(C)C/C=C/C(=O)Nc1ccc(C(=O)Nc2cccc(Nc3ncc(Cl)c(-c4c[nH]c5ccccc45)n3)c2)cc1 [THZ1]
- PSA ([1]; 200 nM THZ1, 24 h): reduced PSA
- apoptosis (cleaved PARP, cleaved caspase-3) ([1]; 200 nM THZ1, 24 h): increased apoptosis
- p-MED1 ([1]; 200 nM THZ1, 24 h): loss of p-MED1
- growth (colony formation) ([1]; enzalutamide plus 50 nM THZ1): growth inhibition
- systemic toxicity (VCaP CRPC xenograft; 10 mg/kg b.i.d., four weeks): well tolerated with no treatment-related systemic toxicity observed
- tumor p-MED1 levels (VCaP CRPC xenograft; 10 mg/kg b.i.d., four weeks): significant reduction in p-MED1 levels
- plasma PSA expression (VCaP CRPC xenograft; 10 mg/kg b.i.d., four weeks, vs vehicle treated mice): significantly reduced
- animal weight (VCaP CRPC xenograft; 10 mg/kg twice daily, 4 weeks): does not affect the animal weight
- tumor volume (VCaP CRPC xenograft; castrated mice, 10 mg/kg b.i.d. intraperitoneally, four weeks, vs vehicle): dramatic tumor regression
- tumor PSA expression (IHC) (VCaP CRPC xenograft; [5]): loss of PSA expression
- tumor apoptosis (cleaved caspase-3) (VCaP CRPC xenograft; [5]): increased apoptosis
- tumor necrosis (VCaP CRPC xenograft; [5]): necrosis
- tumor proliferative activity (KI-67) (VCaP CRPC xenograft; [5]): reduced proliferative activity
- long-term colony formation (AR-positive cells): severely inhibited long-term colony formation
- Threonine phosphorylation of GST-MED1 (aa 1391-1490) at T1457 [2]: completely inhibited
- apoptosis [3]: not observed
- apoptosis [4]: induced robust apoptosis
